As usually defined, the IC50 is the point on the concentration scale where inhibition reaches its midpoint.

In ChEMBL document CHEMBL1221336, “Xanthones with neuraminidase inhibitory activity from the seedcases of Garcinia mangostana” (Bioorg Med Chem, 2010) one finds Ki, inhibition and IC50 data, which are given here for 13 compounds.

For test [1], the target named is T1, Sialidase (Clostridium perfringens, UniProt P10481).
T1 sequence (P10481 whole entry): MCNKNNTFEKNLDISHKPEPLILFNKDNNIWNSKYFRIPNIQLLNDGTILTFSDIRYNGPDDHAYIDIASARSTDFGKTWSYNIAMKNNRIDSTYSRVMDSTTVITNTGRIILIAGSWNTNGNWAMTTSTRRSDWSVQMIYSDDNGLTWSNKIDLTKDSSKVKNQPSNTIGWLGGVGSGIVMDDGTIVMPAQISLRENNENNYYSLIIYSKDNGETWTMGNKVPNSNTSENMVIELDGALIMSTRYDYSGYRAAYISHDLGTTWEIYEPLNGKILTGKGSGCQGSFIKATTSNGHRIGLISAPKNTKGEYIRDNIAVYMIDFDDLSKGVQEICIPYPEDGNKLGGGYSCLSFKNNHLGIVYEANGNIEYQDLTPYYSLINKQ
The test is described as follows: Competitive inhibition of Clostridium perfringens neuraminidase by fluorimetry.

Test [2] deals with T2, Sialidase (Clostridium perfringens) (UniProt P10481).
T2 sequence (whole entry): T1 sequence (P10481 whole entry)
The test is described as follows: Inhibition of Clostridium perfringens neuraminidase at 1.56 uM by fluorimetry. The note with it: TDE = time-dependent effect.

Test [3] addresses T1, Sialidase. Put plainly: Inhibition of Clostridium perfringens neuraminidase by fluorimetry. The note with it: for Ki: read-out: Ki(app).

Compound `CC(C)=CCc1c(O)cc2oc3cc(O)c(O)c(CC=C(C)C)c3c(=O)c2c1O` registered a Ki on Sialidase [1] of 0.8 µM. For the same compound, in test [2], the inhibition result is “tde”. At Sialidase [3], the IC50 was 2.2 µM and the Ki was 7.41 µM.
Compound `COc1cc2oc3cc(O)c(OC)c(CC=C(C)C)c3c(=O)c2c(O)c1CC=C(C)C` showed a Ki at Sialidase [1] of 24.9 µM. The same compound showed an IC50 against Sialidase [3] of 60.7 µM.
On the same counts, the results for `CC(C)=CCc1c(O)c(CC=C(C)C)c2oc3c(O)cccc3c(=O)c2c1O` [8-DEOXYGARTANIN] are 15.5 µM and 29.2 µM.
On the same counts, the results for `COc1cc2oc3c(O)cccc3c(=O)c2c(O)c1CC=C(C)C` [CUDRAXANTHONE] are 35.2 µM and 65.7 µM.
On Sialidase [1], `COc1c(O)cc2oc3cc(O)c(CC=C(C)C)c(O)c3c(=O)c2c1CCC(C)(C)O` [GARCINONE D] showed a Ki of 3.3 µM. This compound registered an IC50 against Sialidase [3] of 5.7 µM.
`CC(C)=CCc1c(O)c(CC=C(C)C)c2oc3c(O)ccc(O)c3c(=O)c2c1O` [GARTANIN] returned a Ki on Sialidase [1] of 3.6 µM. Besides, the inhibition result in test [2] is “tde”. In addition, at Sialidase [3], the IC50 was found to be 2.9 µM and the Ki is 0.437 µM.
Regarding `COc1c(O)cc2oc3cc4c(c(O)c3c(=O)c2c1CC=C(C)C)C=CC(C)(C)O4` [MANGOSTANIN], the Ki on Sialidase [1] was 5.9 µM. At Sialidase [3], this compound gave an IC50 of 20.1 µM.
On the same counts, the results for `COc1c(O)cc2oc3cc4c(c(O)c3c(=O)c2c1CC=C(C)C)CC(O)C(C)(C)O4` (stereo unspecified) [MANGOSTANOL] are 6.5 µM and 21.5 µM.
`C=C(C)C1Cc2c(cc3oc4cc(O)c(OC)c(CC=C(C)C)c4c(=O)c3c2O)O1` (stereo unspecified) [MANGOSTENONE F] gave a Ki on Sialidase [1] of 7.6 µM. Half-maximal inhibition against Sialidase [3] (IC50) was put at 24.8 µM.
Taken in the same sequence, the figures for `C=C(C)C1Cc2c(c(O)cc3oc4cc(O)c(CC=C(C)C)c(O)c4c(=O)c23)O1` (stereo unspecified) [MANGOSTENONE G] were 6.8 µM and 14.6 µM.
Taken in the same sequence, the figures for `COc1c(O)cc2oc3cc(O)c(CC=C(C)C)c(O)c3c(=O)c2c1CC=C(C)C` [MANGOSTIN] were 5.8 µM and 12.2 µM.
`O=c1c(O)c(-c2ccc(O)c(O)c2)oc2cc(O)cc(O)c12` [QUERCETIN]: the midpoint of inhibition against Sialidase [3], the IC50, lay at 9.8 µM.
As for `CC(C)=CCC/C(C)=C/Cc1c(O)cc2oc3c(O)ccc(O)c3c(=O)c2c1O` [SMEATHXANTHONE A], at Sialidase [1], the Ki was determined as 0.15 µM. Further, in test [2], the inhibition result was “tde”. Besides, at Sialidase [3], it took 0.27 µM to reach half-maximal inhibition (IC50) and the Ki is 0.0447 µM.
